Measurements from paper PMC6152192, “Novel Methylselenoesters as Antiproliferative Agents” (Molecules : A Journal of Synthetic Chemistry and Natural …, 2017).
Where “and” joins values, the source holds several entries; their conditions need not be identical. Equal entries are not always repeated.

Tests used:
[1] = test system: PC-3 (prostate adenocarcinoma); assay: MTT viability assay, PC-3; type: cell-based; conditions: PC-3, 72 h, MTT; for CC50: read-out: LC50 (the source's name)
Protocol: (§1) The novel compounds were tested against a panel of different cancer lines: PC-3 (prostate adenocarcinoma), MCF7 (mammary adenocarcinoma), HTB-54 (lung carcinoma), K-562 (chronic myelogenous leukemia) and HT-29 (colorectal adenocarcinoma). Two non-malignant cell lines, BEAS-2B (bronchial epithelial) and 184B5 (mammary epithelial) were also included to evaluate the toxicity of the novel synthesized compounds. The antiproliferative activity was measured with the [3-(4,5-dimethylthiazol-2-yl)-2,5-diphenyltetrazolium bromide] (MTT) assay after 72 h treatment. Six concentrations ranging from 0.1 to 100 μM were tested. MSA is largely known as the main CH3SeH putative precursor and was therefore included as positive control. The following parameters were calculated: GI50 (concentration which reduces the growth by 50%), TGI (concentration completely inhibiting growth) and LC50 (concentration that kills 50% of the cells).
(§2) All cells were purchased from the American Type Culture Collection (ATCC, Barcelona, Spain). HT-29 (colorectal adenocarcinoma), HTB-54 (grade III lung carcinoma), MCF7 (mammary adenocarcinoma), PC-3 (grade IV prostate adenocarcinoma) and K-562 (chronic myelogenous leukemia) were cultured in RPMI (Gibco, Madrid, Spain), 10% FBS (Gibco), 100 units/mL penicillin and 100 μg/mL streptomycin (Gibco). BEAS-2B cell line (normal epithelial lung) was cultured in DMEM (Gibco), 10% FBS, 100 units/mL penicillin and 100 μg/mL streptomycin. 184B5 (normal mammary gland) cell line was cultured in DMEM:F12 supplemented with 5% FBS, 1 × ITS (Lonza, Barcelona, Spain), 100 nM hydrocortisone (Sigma-Aldrich), 2 mM sodium pyruvate (Lonza), 20 ng/mL EGF (Sigma-Aldrich), 0.3 nM trans-retinoic acid (Sigma-Aldrich), 100 units/mL penicillin and 100 µg/mL streptomycin. Cells were cultured at 37 °C under 5% CO2.
(§3) Cell viability after treatment was assessed by the well-known 3-(4,5-dimethyl-thiazol-2-yl)-2,5-diphenyltetrazolium bromide (MTT, Sigma-Aldrich) assay. Briefly, 10,000 cells were seeded in 96-well plates, treated and incubated for 72 h. Dilutions of the compounds in cell medium were freshly prepared from a 0.01 M stock in DMSO. After treatment, 50 μL of MTT solution in PBS (2 mg/mL) were added and cells were incubated for 4 h. Medium was removed and 150 μL of DMSO was added to dissolve the formed formazan crystals. Absorbance was read at 550 nm in a microplate absorbance reader (Sunrise, Tecan, Männedorf, Switzerland).

HTB-54 (lung carcinoma) = assay: MTT viability assay, HTB-54; type: cell-based; conditions: HTB-54, 72 h, MTT; for CC50: read-out: LC50 (the source's name)
Protocol: as §1, §2, §3

[2] = Methylselenol (CH3SeH) release by hydrolysis, quantified with DTNB (Ellman's reagent); type: physicochemical; conditions: 100 μM compound, 100 μM DTNB
From the text: The new compounds were designed as CH3SeH precursors. The chemical features of the selenoester functional group facilitate a nucleophilic attack (i.e., with water) which would deliver the CH3SeH residue. In order to verify if CH3SeH could be released from the molecules by hydrolysis and if the rate differed among the compounds, the reaction of CH3SeH with 5,5′-dithiobis(2-nitrobenzoic acid) (DTNB or Ellman’s reagent) in aqueous environment was monitored. Briefly, when the disulfide bridge of DTNB reacts with thiols or selenols, 2-nitro-5-thiobenzoate (TNB^2−) is released and the mixed disulfide or selenylsulfide is formed. Each released CH3SeH produces one yellow TNB^2− species, whose absorbance can be quantified at 412 nm (Figure 2A).
A stock solution of the compounds was prepared in anhydrous DMSO (10 mM). The compounds were placed in a 96-well plate in a final concentration of 100 μM. Reaction started after adding 200 μL of an aqueous 100 mM Na2HPO4 buffer (1 mM EDTA, pH = 8), containing 100 μM of DTNB from a freshly prepared 10 mM ethanolic stock, which were added just before starting the reaction. The DTNB concentration was quantified with a cysteine standard curve ([…]). Blanks for the compounds in the absence of DTNB were also included as well as a blank to measure the slow but spontaneous hydrolysis of DTNB, which was further subtracted from all the values. Absorbance was read at 412 nm in a FLUOstar Omega microplate reader (BMG LabTech, Ortenberg, Germany). Results represent means of triplicate values ± SD.
Figure 2 CH3SeH release rates are dependent on the chemical features of the molecule. Released CH3SeH was quantified through reaction with Ellman’s reagent (DTNB). (A) Proposed reaction between CH3SeH and DTNB; (B) Quantification of TNB^2− at different times. The compounds were tested at 100 μM in 200 μL of 100 mM phosphate buffer (1 mM EDTA, pH = 8). DTNB concentration was also 100 μM. Absorbance was followed at 412 nm over 72 h. A cysteine standard curve (7.5–150 μM) was used to calculate the concentration of TNB^2− over time. Compounds showing less than 15% hydrolysis at 72 h are not included, except for compound 5 as example. Error bars indicate SD of triplicates.

MCF7 cells = assay: Cell death analysis (TUNEL, Apo-Direct kit, flow cytometry); type: cell-based; conditions: for cell death time dependence: MCF7, time-course, 15 μM compound 5 or 30 μM compound 15, TUNEL; for dead cells: MCF7, 30 μM, TUNEL
Protocol: Induction of cell death is the major aim of antitumor drugs. We analyzed cell death progression using the TUNEL technique (in the Apo-Direct kit), which is based on DNA fragmentation. MCF7 cells were treated with increasing concentrations of compounds 5 and 15 for 24 h or with 30 μM of compound 15 or 15 μM of compound 5 for different times. The negative control was treated with vehicle, and camptothecin (6 μM) was included as a positive control.
3 × 10^6 or 2 × 10^6 MCF7 cells were seeded in 25 cm^2 flasks for treatments up to 24 h or 48 h, respectively. DMSO (vehicle) or the dissolved compounds were added 24 h after seeding and cells were incubated for different times at 37 °C under 5% CO2. Cell cycle and cell death were analyzed simultaneously with the Apo-Direct kit (BD Pharmingen, Madrid, Spain), following the manufacturer’s protocol. Briefly, cells were fixed in 1% paraformaldehyde for 45 min at 0 °C, washed with PBS and incubated for at least 30 min in 70% ethanol on ice. Cells were then stained both with FITC-dUTP (1 h, 37 °C) and propidium iodide (30 min, room temperature) and analyzed by flow cytometry using a Coulter Epics XL cytometer (Beckman Coulter, Brea, CA, USA).
Figure 5 Cell death induction is dose and time-dependent for compound 15 in MCF7. MCF7 cells were treated with vehicle (control) or increasing doses of compound 5 or 15 for 24 h. For the time-course experiment, MCF7 cells were treated with vehicle (control), compound 5 (15 μM) or compound 15 (30 μM) for different times. Camptothecin (6 μM) was included as positive control. Cells were stained with the Apo-Direct kit (TUNEL assay) and analyzed by flow cytometry. (A) Dose-dependent cell death at 24 h; (B) Time-course analysis of cell death.

Substance	GI50 [1]	TGI [1]	CC50 [1]	GI50 (HTB-54 (lung carcinoma))	CC50 (HTB-54 (lung carcinoma))	hydrolysis at 72 h ([2]; phosphate buffer pH 8, 72 h)	cell death time dependence (MCF7 cells)	TGI (HTB-54 (lung carcinoma))	CH3SeH release / hydrolysis rate ([2]; 100 mM phosphate buffer, 1 mM EDTA, pH 8, followed over 72 h)	dead cells (MCF7 cells; 4 h)	dead cells (MCF7 cells; 48 h)
Methyl 3-chlorothiophen-2-carboselenoate [Compound 5]	8.6 ± 1.7 µM	47.7 ± 2.9 µM	91.6 ± 3.9 µM	4.9 ± 0.2 µM	61.5 ± 3.2 µM	less than 15%	highest values of cell death for compound 5 were observed after 4 h treatment	–	–	–	–
Dimethyl 2,5-furandicarboselenoate [Compound 15]	4.8 ± 0.8 µM	–	47.8 ± 4.4 µM	> 10 µM and 15.6 µM	76.3 ± 1.1 µM	–	caused cell death in a time-dependent manner	46.0 ± 3.0 µM	more sustained release	20%	80%
